# Publication PMC6764291 (Frontiers in Oncology, 2019)
# “Also recorded” adds a separate entry of the source.
# What was measured:
# p53 = test: Western Blot p53 expression, UM-SCC-74B; type: cell-based, human; conditions: n ≥ 3
# Experimental: (§1) Cells were irradiated using ^137Cs gamma-ray photons at a dose-rate of ~1 Gy/min (Best Theratronics Gammacell® 40Exactor, Springfield, USA).
# Whole-cell lysates were prepared according to standard protocols. Protein concentrations were measured using a DeNovix DS-11 spectrophotometer (DeNovix Inc., Wilmington, DE, USA). Samples were separated on 4–12% Bis-Tris SDS gels and transferred to a nitrocellulose membrane (ThermoFisher Scientific, Uppsala, Sweden) by wet-transfer blotting. The membrane was blocked for 1 h in PBS with 5% BSA before incubation with primary antibodies targeting p53, caspase-3, NaK-ATPase and GLB1 (DO-1 (ab1101), ab13847, ab76020 and ab128993, AbCam, Cambridge, UK) and β-actin (A5441, Sigma Aldrich Sweden, Stockholm, Sweden) at 4°C overnight. After washing with PBS with 1% Tween-20, the membrane was incubated with respective and species-specific Horse Radish Peroxidase-labeled secondary antibody (ThermoFisher Scientific, Waltham, MA, USA) and stained with electro-chemiluminescent solution (Immobilon, Millipore, Bedford, USA).
# cleaved caspase-3 = test: Flow cytometry cleaved caspase-3, UM-SCC-74B; type: cell-based, human
# Experimental: as §1
# (§2) Cells were collected and fixed in 70% ethanol at 6, 12, 24, 48, 72, and 96 h post-irradiation and stored at −20°C. For cell cycle analyses, 6, 12, 24, and 48 h samples were rehydrated and washed twice with PBS and stained with DAPI (Sigma Aldrich Sweden, Stockholm, Sweden) using 1 μg/ml for 30 min. 24, 48, 72, and 96 h samples were stained with caspase-3 and Noxa (ab13847 (1:500) and ab13654 (1:1,000), AbCam, Cambridge, UK) overnight at 4°C, followed by incubation with fluorescent labeled secondary antibodies for 90 min (ab 1:400) at room temperature. Analyses were performed using a BD LSR Fortessa flow cytometer (Becton Dickinson Biosciences, San Jose, USA). Data analyses for cleaved caspase-3 and Noxa were performed with BD FACSDiVa (Becton Dickinson Biosciences, San Jose, USA), while cell cycle analyses of exclusively viable cells were performed using FlowJo (Becton, Dickinson Biosciences, San Jose, USA). Coefficient of variation (CV) values, were below seven for all samples.
# Noxa = test: Flow cytometry Noxa expression, UM-SCC-74B; type: cell-based, human; conditions: 20 μM PM2, 72 h
# Experimental: as §1, §2
# UM-SCC-74B spheroids = test: 3D tumor spheroid growth, UM-SCC-74B; type: cell-based, human; conditions: for Maximum time to termination / Median time to termination: volume >600 μm^3; for CDI: CDI = AB/(A*B)
# Experimental: as §1
# For liquid overlay 3D spheroid formation, 96-well plates were coated with 0.15% agarose dissolved in PBS with 1% penicillin/streptomycin. 1000 UM-SCC-74B cells/well were seeded and incubated at 37°C for 3 days prior to treatment. […] Half of the medium was replaced every 48 h for the first 10 days, thereafter every 4 days. […] Images were obtained every 2–4 days using a Canon EOS 700D camera mounted on an inverted Nikon Diaphot-TMD microscope. […] Each spheroid was normalized to its own starting volume at the start of treatment (Day 0, growth ratio = 1). Spheroids exceeding a volume of 600 μm^3 were excluded (i.e., terminated) from further analyses as 600 μm^3 is the maximum size possible to obtain in these settings with uncompromised growth conditions.
# GraphPad Prism version 6.07 (GraphPad Software, San Diego, USA) was used for data processing and analysis. p-values were determined using unpaired student's t-test for comparison between two groups or one-way ANOVA followed by Tukey's multiple comparisons test, with p < 0.05 (^*), p < 0.01 (^**), p < 0.001 (^***), and p < 0.0001 (^****). For XTT assays cell viability was normalized for irradiated and unirradiated samples separately. […] CDI ≤ 0.7 equaled significant synergistic effect, CDI ≤ 1 equaled additive effect and CDI > 1 equaled antagonistic effect ([29]).
# wt p53 tumors = conditions: mice, PM2 combined with radiotherapy; cited from earlier work
# p53^−/− tumors = conditions: mice, PM2 combined with radiotherapy; cited from earlier work
smiles,measurement,setting,value
CC(=O)N[C@H](C(=O)N[C@@H](CO)C(=O)N[C@@H](Cc1ccccc1)C(=O)N[C@]1(C)CCCCCCC=CCCC[C@@](C)(C(N)=O)NC(=O)[C@H](CC(C)C)NC(=O)[C@H](CC(C)C)NC(=O)[C@H](C)NC(=O)[C@H](Cc2c[nH]c3ccccc23)NC(=O)[C@H](Cc2ccc(O)cc2)NC(=O)[C@H](CCC(=O)O)NC1=O)[C@@H](C)O [PM2],p53 expression,"p53; 20 μM PM2, 24 h",increased expression of p53
same,"p53 expression, combination versus PM2 alone","p53; 2 Gy + 20 μM PM2, 24 h",significant increase; also recorded: further increased wt p53 levels
same,increase in wt p53 levels following combination therapy,"p53; 2 Gy + 20 μM PM2, 24 h, normalized to controls",~5 fold
same,cleaved caspase-3 expression,"cleaved caspase-3; 20 μM PM2, 72 h",distinct increases
same,cleaved caspase-3 increase compared to controls,"cleaved caspase-3; 20 μM PM2-treated, peak at 72 h, n ≥ 3",40 fold
same,"cleaved caspase-3, combination versus PM2 alone","cleaved caspase-3; 2 Gy + 20 μM PM2, p ≤ 0.05",significantly higher expression levels
same,Noxa expression,Noxa,distinct increases
same,Maximum time to termination,UM-SCC-74B spheroids; 2 × 2 Gy and 3 × PM2,25 days
same,Median time to termination,UM-SCC-74B spheroids; 2 × 2 Gy and 3 × PM2,21 days
same,spheroid response,"UM-SCC-74B spheroids; 2 × 2 Gy/3 × 20 μM PM2, day 14",continuous growth inhibition throughout day 14
same,spheroid size of untreated controls,"UM-SCC-74B spheroids; 3 × 2 Gy + single dose of PM2, day 14",75%
same,increase of median time to termination compared to untreated controls,UM-SCC-74B spheroids; 3 × 2 Gy and 3 × PM2,2 fold
same,Maximum time to termination,UM-SCC-74B spheroids; 3 × 2 Gy and 3 × PM2,35 days
same,Median time to termination,UM-SCC-74B spheroids; 3 × 2 Gy and 3 × PM2,28 days
same,spheroid response,"UM-SCC-74B spheroids; 3 × 2 Gy/3 × 20 μM PM2, day 14",continuous growth inhibition throughout day 14
same,spheroid size of treated spheroids as % of untreated controls,"UM-SCC-74B spheroids; 5 × 20 μM PM2 at 48 h intervals, day 14, no radiation",57%
same,spheroid size of untreated controls,"UM-SCC-74B spheroids; 5 × 2 Gy + single dose of PM2, day 14",55%
same,Maximum time to termination,UM-SCC-74B spheroids; 5 × 2 Gy and 1 × PM2,25 days
same,Median time to termination,UM-SCC-74B spheroids; 5 × 2 Gy and 1 × PM2,21 days
same,Maximum time to termination,UM-SCC-74B spheroids; 5 × 2 Gy and 5 × PM2,Not reached
same,Median time to termination,UM-SCC-74B spheroids; 5 × 2 Gy and 5 × PM2,Not reached
same,spheroid response,UM-SCC-74B spheroids; 5 × 2 Gy/5 × 20 μM PM2,spheroid disintegration and cell death
same,Maximum time to termination,"UM-SCC-74B spheroids; 5 × PM2, no radiation",21 days
same,Median time to termination,"UM-SCC-74B spheroids; 5 × PM2, no radiation",21 days
same,CDI,"UM-SCC-74B spheroids; Day 10, 1 × 20 μM PM2 + 1 × 2 Gy",0.705
same,CDI,"UM-SCC-74B spheroids; Day 10, 1 × 20 μM PM2 + 2 × 2 Gy",0.507
same,CDI,"UM-SCC-74B spheroids; Day 10, 1 × 20 μM PM2 + 3 × 2 Gy",0.493
same,CDI,"UM-SCC-74B spheroids; Day 10, 1 × 20 μM PM2 + 5 × 2 Gy",0.472
same,CDI,"UM-SCC-74B spheroids; Day 10, 2 × 20 μM PM2 + 2 × 2 Gy",0.209
same,CDI,"UM-SCC-74B spheroids; Day 10, 3 × 20 μM PM2 + 1 × 2 Gy",0.412
same,CDI,"UM-SCC-74B spheroids; Day 10, 3 × 20 μM PM2 + 2 × 2 Gy",0.122
same,CDI,"UM-SCC-74B spheroids; Day 10, 3 × 20 μM PM2 + 3 × 2 Gy",0.244
same,CDI,"UM-SCC-74B spheroids; Day 10, 5 × 20 μM PM2 + 1 × 2 Gy",0.398
same,CDI,"UM-SCC-74B spheroids; Day 10, 5 × 20 μM PM2 + 5 × 2 Gy",0.201
same,CDI,"UM-SCC-74B spheroids; Day 14, 1 × 20 μM PM2 + 1 × 2 Gy",1.03
same,CDI,"UM-SCC-74B spheroids; Day 14, 1 × 20 μM PM2 + 2 × 2 Gy",0.93
same,CDI,"UM-SCC-74B spheroids; Day 14, 1 × 20 μM PM2 + 3 × 2 Gy",0.821
same,CDI,"UM-SCC-74B spheroids; Day 14, 1 × 20 μM PM2 + 5 × 2 Gy",0.815
same,CDI,"UM-SCC-74B spheroids; Day 14, 2 × 20 μM PM2 + 2 × 2 Gy",0.51
same,CDI,"UM-SCC-74B spheroids; Day 14, 3 × 20 μM PM2 + 1 × 2 Gy",0.944
same,CDI,"UM-SCC-74B spheroids; Day 14, 3 × 20 μM PM2 + 2 × 2 Gy",0.333
same,CDI,"UM-SCC-74B spheroids; Day 14, 3 × 20 μM PM2 + 3 × 2 Gy",0.182
same,CDI,"UM-SCC-74B spheroids; Day 14, 5 × 20 μM PM2 + 1 × 2 Gy",0.568
same,CDI,"UM-SCC-74B spheroids; Day 14, 5 × 20 μM PM2 + 5 × 2 Gy",0.023
same,effect on proliferation rate of spheroids,"UM-SCC-74B spheroids; all combination treatments of PM2 and EBRT, prior to day 14",synergistic inhibitory effects
same,spheroid response (abstract),UM-SCC-74B spheroids; combination of PM2 and EBRT,growth inhibition and complete spheroid disintegration
same,spheroid disintegration,UM-SCC-74B spheroids; five repeated doses of both PM2 (20 μM) and 2 Gy,100%
same,spheroid growth inhibition,"UM-SCC-74B spheroids; repeated PM2 doses at 48 h intervals, no radiation",did inhibit growth in a dose-dependent manner
same,spheroid growth inhibition,"UM-SCC-74B spheroids; single 20 μM PM2, 48 h incubation, no radiation",failed to impair UM-SCC-74B spheroid growth
same,spheroid growth inhibition,UM-SCC-74B spheroids; single dose of PM2 with EBRT,greater inhibitory effects than either treatment alone
same,spheroid growth inhibition,UM-SCC-74B spheroids; two repeated doses of each of PM2 and EBRT (data not shown),growth inhibition surpassing the standard 14-day assay
same,prolongation of median survival,wt p53 tumors,50%
same,effects on p53^−/− tumors,p53^−/− tumors,negligible
